In PubChem BioAssay (NCI) one finds TGI and GI50 data, which are given here for nine compounds.

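Grown in 96-well plates, cells were treated for 48 hours with each compound at five concentrations. Insufficient inhibition: endpoint recorded as highest concentration tested. GI50: concentration for 50% inhibition of growth. TGI is the concentration that stops growth completely.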

Among the test systems are CAKI-1 renal; EKVX NSCLC; HL-60(TB) leukemia; M14 melanoma; MCF7 breast; OVCAR-5 ovarian; RXF 393 renal; SNB-75 CNS; SR leukemia; SW-620 colon.
Common to all, as to assay: NCI tumour cell line growth inhibition, 48 h

In the case of `COc1ccc(OC)c(/C=N/N=C2\C(=O)Nc3c(Cl)cc(Cl)cc32)c1`, the TGI in the experiment with CAKI-1 renal, in the experiment with EKVX NSCLC, in the experiment on HL-60(TB) leukemia, in the experiment with M14 melanoma, in the experiment on MCF7 breast and with OVCAR-5 ovarian was > 100 µM each time. Further, the TGI in the experiment with RXF 393 renal was > 100 µM; in the experiment with SNB-75 CNS it was 19.7 µM; in the experiment on SR leukemia, > 100 µM; in the experiment with SW-620 colon it was > 100 µM.

In the case of `CCc1nc(N)nc(N)c1C#CC(C)c1cc(-c2ccnc(C)c2)c2oc(C)nc2c1` (stereo unspecified), the GI50 is < 0.0109 µM in the experiment with CAKI-1 renal; 0.451 µM in the experiment with EKVX NSCLC; < 0.01 µM with HL-60(TB) leukemia; < 0.01 µM in the experiment with M14 melanoma; 0.0118 µM in the experiment with MCF7 breast; < 0.0103 µM in the experiment with OVCAR-5 ovarian. For the same compound, the GI50 in the experiment with RXF 393 renal is 0.0395 µM; in the experiment with SNB-75 CNS, 0.278 µM; in the experiment with SR leukemia it was < 0.0342 µM; with SW-620 colon it was < 0.01 µM. Moreover, the TGI in the experiment on CAKI-1 renal was 5.58 µM; in the experiment on EKVX NSCLC, 15 µM; in the experiment with HL-60(TB) leukemia it was 2.22 µM; in the experiment on M14 melanoma, 5.69 µM; with MCF7 breast, 11.9 µM; in the experiment on OVCAR-5 ovarian, 13.6 µM. The TGI in the experiment on RXF 393 renal was 2.71 µM; in the experiment with SNB-75 CNS, 3.78 µM; in the experiment on SR leukemia it was > 53.9 µM; in the experiment with SW-620 colon, 13.2 µM.

For `CCCC(CCC)C(=O)OCC1(CO)C/C(=C\c2ccc(C(F)(F)F)cc2)C(=O)O1` (stereo unspecified), the GI50 was 6.16 µM in the experiment on CAKI-1 renal; 11 µM with EKVX NSCLC; 0.308 µM in the experiment with HL-60(TB) leukemia; 10.7 µM in the experiment with M14 melanoma; 17.4 µM with MCF7 breast; 17.1 µM with OVCAR-5 ovarian. Besides, the GI50 in the experiment on RXF 393 renal was 16.6 µM; with SNB-75 CNS it was 12.1 µM; in the experiment on SR leukemia it was 14.9 µM; with SW-620 colon, 8.64 µM. Moreover, the TGI is 21.2 µM with CAKI-1 renal; 27.2 µM with EKVX NSCLC; 8.13 µM in the experiment on HL-60(TB) leukemia; 23.2 µM with M14 melanoma; 33.9 µM in the experiment on MCF7 breast; 31.7 µM in the experiment on OVCAR-5 ovarian. Moreover, the TGI in the experiment on RXF 393 renal was 37.8 µM; in the experiment on SNB-75 CNS, 26.8 µM; in the experiment on SR leukemia it was 31.1 µM; with SW-620 colon, 21.8 µM.

As to `Cc1cn(Cc2ccccc2CCl)c(=O)n(Cc2ccccc2CCl)c1=O`, the GI50 with CAKI-1 renal was 1.86 µM; in the experiment on EKVX NSCLC, 2.26 µM; with HL-60(TB) leukemia it was 1.37 µM; in the experiment with M14 melanoma it was 1.69 µM; in the experiment on MCF7 breast, 1.36 µM; with OVCAR-5 ovarian, 2.61 µM. The GI50 in the experiment on RXF 393 renal was 1.57 µM; with SNB-75 CNS, 1.81 µM; with SR leukemia it was 0.661 µM; with SW-620 colon, 2.14 µM. Moreover, the TGI in the experiment on CAKI-1 renal worked out at 3.3 µM; in the experiment with EKVX NSCLC, 5.13 µM; in the experiment on HL-60(TB) leukemia, 3.24 µM; with M14 melanoma, 3.28 µM; in the experiment on MCF7 breast, 4.77 µM; in the experiment on OVCAR-5 ovarian, 9.69 µM. For the same compound, the TGI came out at 3.22 µM in the experiment on RXF 393 renal, 3.79 µM with SNB-75 CNS, 3.25 µM in the experiment with SR leukemia and 6.03 µM in the experiment on SW-620 colon.

As to `COc1cc(NC(=O)c2cc(O)c(C/C=C(\C)CCC=C(C)C)c(O)c2)cc2c1O[C@]1(C)CC[C@@H](O)C(C)(C)[C@H]1C2`, the GI50 was 1.53 µM in the experiment on CAKI-1 renal; 2.25 µM in the experiment with EKVX NSCLC; 0.549 µM in the experiment with HL-60(TB) leukemia; 1.48 µM with M14 melanoma; 1.08 µM in the experiment on MCF7 breast; 4.09 µM in the experiment on OVCAR-5 ovarian. Besides, the GI50 in the experiment on RXF 393 renal was 0.209 µM; with SNB-75 CNS, 0.444 µM; in the experiment on SR leukemia, 0.418 µM; with SW-620 colon it was 2.62 µM. The TGI is 11.8 µM with CAKI-1 renal; 11.4 µM in the experiment on EKVX NSCLC; 4.88 µM in the experiment on HL-60(TB) leukemia; 4.09 µM in the experiment with M14 melanoma; 5.73 µM with MCF7 breast; 19.2 µM in the experiment with OVCAR-5 ovarian. In addition, the TGI in the experiment with RXF 393 renal came out at 0.747 µM; with SNB-75 CNS, 2.75 µM; in the experiment on SR leukemia, 4.34 µM; with SW-620 colon it was 13.1 µM.

As for `CC1=NN(c2ccccc2)C(=O)C1N=Nc1ccc(S(N)(=O)=O)cc1` (stereo unspecified), the TGI with CAKI-1 renal, with EKVX NSCLC, in the experiment with HL-60(TB) leukemia, with M14 melanoma, in the experiment on MCF7 breast and with OVCAR-5 ovarian was > 100 µM each time. Also, the TGI in the experiment on RXF 393 renal, with SNB-75 CNS, with SR leukemia and in the experiment with SW-620 colon was > 100 µM in each case.

Regarding `CCCCN(CCCC)CCC(O)c1cc2ccc(C(F)(F)F)cc2c2cc(C(F)(F)F)ccc12` (stereo unspecified), the GI50 in the experiment on CAKI-1 renal was 2.61 µM; in the experiment on EKVX NSCLC it was 9.3 µM; in the experiment on HL-60(TB) leukemia, 1.44 µM; with M14 melanoma, 1.82 µM; in the experiment on MCF7 breast, 1.62 µM; in the experiment with OVCAR-5 ovarian it was 2.97 µM. For the same compound, the GI50 was 1.56 µM in the experiment on RXF 393 renal, 3.46 µM in the experiment with SNB-75 CNS, 1.61 µM with SR leukemia and 1.76 µM with SW-620 colon. Moreover, the TGI is 9.01 µM in the experiment with CAKI-1 renal; 26.8 µM in the experiment on EKVX NSCLC; 3.42 µM with HL-60(TB) leukemia; 3.77 µM in the experiment with M14 melanoma; 3.74 µM with MCF7 breast; 12.8 µM with OVCAR-5 ovarian. Moreover, the TGI worked out at 3.16 µM with RXF 393 renal, 15 µM in the experiment with SNB-75 CNS, 6.41 µM with SR leukemia and 5.13 µM in the experiment on SW-620 colon.

For `CN(C)CC1=Nc2cccc3cccc(c23)N1`, the TGI with CAKI-1 renal amounted to 38.6 µM; in the experiment with EKVX NSCLC, 31.7 µM; in the experiment on HL-60(TB) leukemia, 45.2 µM; in the experiment with M14 melanoma, 34.7 µM; with MCF7 breast it was 30.8 µM; in the experiment on OVCAR-5 ovarian it was 31.6 µM. Further, the TGI is 31.9 µM with RXF 393 renal, 30.4 µM in the experiment on SNB-75 CNS, 84.3 µM with SR leukemia and > 100 µM in the experiment on SW-620 colon.

As to `O=C1OC(OC/C(Br)=C(/Br)COC2OC(=O)C(Cl)=C2Cl)C(Cl)=C1Cl` (stereo unspecified), the TGI in the experiment with CAKI-1 renal was found to be 7.68 µM; with EKVX NSCLC, 32.2 µM; in the experiment on HL-60(TB) leukemia it was 4.33 µM; with M14 melanoma it was 17.3 µM; in the experiment with MCF7 breast, 30.9 µM; with OVCAR-5 ovarian, 33 µM. Also, the TGI is 13.4 µM with RXF 393 renal, 36 µM in the experiment on SNB-75 CNS, 5.46 µM with SR leukemia and 8.26 µM in the experiment on SW-620 colon. For the same compound, the GI50 in the experiment on SR leukemia is 1.6 µM.
